Reference: patent publication US10300106B2, “Autophagy-inducing peptide analogs” (Board of Regents, The University of Texas System, priority 2013, dated 2019)
Non-standard residues stand in square brackets, D forms with d. No end group written: not given here.

tested on: autophagy (p62 degradation, LC3-I to LC3-II conversion); test: Biochemical autophagy assays: western blot detection of p62 and of the conversion of LC3-I into LC3-II; format: cell-based; conditions: 10 micromolar; western blot; compared to 10 micromolar Tat-Beclin 1 compound
Method: Autophagy can be detected directly, indirectly or inferentially by conventional assays, such as disclosed and/or exemplified herein, including biochemically (by assessing the generation of Atg8-PE or LC3-II or the degradation of p62) or microscopically (e.g. by observing the localization pattern of fluorescently tagged Atg8 or LC3).
To further assess the components of the beclin 1 peptide required for autophagy-inducing activity, a series of shorter peptides were developed. Activity was measured by biochemical autophagy assays including western blot detection of p62 (a protein degraded by autophagy) and western blot detection of the conversion of LC3-I into LC3-II (the lipidated autophagosome-associated form of LC3).

Question: With VFNATFEIWHD [Wild-type (wt)] as the sequence, how does the LC3-II conversion read?
Answer: The LC3-II conversion was “increased LC3-II conversion”.

Question: And the p62 degradation?
Answer: Its p62 degradation is “increased p62 degradation”.

same assay, conditions: relative to the wild-type (wt) peptide; all peptides carry the 11 amino acid HIV TAT PTD and diglycine linker

Question: “VFNATFEVWHD (HIV TAT PTD-diglycine fusion) [Mutant 14, HIV TAT PTD-diglycine fusion peptide]” was tested. Which “Activity (autophagy inducing activity)” value did it give?
Answer: Its value is “~wt”.

Question: Which “Activity (autophagy inducing activity)” value does the source give for “WNATFHIWH (HIV TAT PTD and diglycine linker fused) [Mutant 27, HIV TAT PTD-diglycine fusion peptide]” here?
Answer: The value was “>>wt”.

Question: How did the “Activity (autophagy inducing activity)” value turn out when “VYNATFEIWHD (HIV TAT PTD-diglycine fusion) [Mutant 13, HIV TAT PTD-diglycine fusion peptide]” was run?
Answer: Its value is “<wt”.

Question: With “VFNATFEIWYD (HIV TAT PTD-diglycine fusion) [Mutant 10, HIV TAT PTD-diglycine fusion peptide]” as the sequence, how does the “Activity (autophagy inducing activity)” value read?
Answer: The value was “~wt”.

Question: With “VWNATFELWHD (HIV TAT PTD-diglycine fusion) [Mutant 12, HIV TAT PTD-diglycine fusion peptide]” as the sequence, how does the “Activity (autophagy inducing activity)” value read?
Answer: The value was “~wt”.

Question: How did the “Activity (autophagy inducing activity)” value turn out when “VWNATFHIWH (HIV TAT PTD and diglycine linker fused) [Mutant 28, HIV TAT PTD-diglycine fusion peptide]” was run?
Answer: The value was “>>wt”.

Question: With “VFNATFEYWHD (HIV TAT PTD and diglycine linker fused) [Mutant 19, HIV TAT PTD-diglycine fusion peptide]” as the sequence, how does the “Activity (autophagy inducing activity)” value read?
Answer: Its value is “~wt”.

Question: With “VFNATWEIWHD (HIV TAT PTD and diglycine linker fused) [Mutant 6, HIV TAT PTD-diglycine fusion peptide]” as the sequence, how does the “Activity (autophagy inducing activity)” value read?
Answer: The value was “<wt”.

Question: With “VFNATFEIWHE (HIV TAT PTD-diglycine fusion) [Mutant 11, HIV TAT PTD-diglycine fusion peptide]” as the sequence, how does the “Activity (autophagy inducing activity)” value read?
Answer: The value was “~wt”.

Question: “VWNATFHIWHD (HIV TAT PTD-diglycine fusion) [Mutant 17, HIV TAT PTD-diglycine fusion peptide]” was tested. Which “Activity (autophagy inducing activity)” value did it give?
Answer: The value was “>>wt”.

Question: For “VFNACFEIWHD (HIV TAT PTD and diglycine linker fused) [Mutant 5, HIV TAT PTD-diglycine fusion peptide]”, which “Activity (autophagy inducing activity)” value is on record?
Answer: Its value is “<wt”.

Question: “VLNATFEIWHD (HIV TAT PTD-diglycine fusion) [Mutant 15, HIV TAT PTD-diglycine fusion peptide]” was tested. Which “Activity (autophagy inducing activity)” value did it give?
Answer: The value was “~wt”.

Question: How did the “Activity (autophagy inducing activity)” value turn out when “VFNATFDIWHD (HIV TAT PTD and diglycine linker fused) [Mutant 7, HIV TAT PTD-diglycine fusion peptide]” was run?
Answer: Its value is “~wt”.

Question: How did the “Activity (autophagy inducing activity)” value turn out when VFNATFEIWHD [Wild-type (wt)] was run?
Answer: The value was “wt”.

Question: How did the “Activity (autophagy inducing activity)” value turn out when “FNATFEIWH (HIV TAT PTD and diglycine linker fused) [Mutant 26, HIV TAT PTD-diglycine fusion peptide]” was run?
Answer: The value was “>>wt”.

Question: With “VFDATFEIWHD ({Tat PTD}-GGVFDATFEIWHD) [Mutant 3, HIV TAT PTD-diglycine fusion peptide]” as the sequence, how does the “Activity (autophagy inducing activity)” value read?
Answer: The value was “<<wt”.

Question: How did the “Activity (autophagy inducing activity)” value turn out when “VWNATFEIWHD ({Tat PTD}-GGVWNATFEIWHD) [Mutant 2, HIV TAT PTD-diglycine fusion peptide]” was run?
Answer: Its value is “>wt”.

Question: How did the “Activity (autophagy inducing activity)” value turn out when “VFNATFEIWH (HIV TAT PTD and diglycine linker fused) [Mutant 25, HIV TAT PTD-diglycine fusion peptide]” was run?
Answer: The value was “>wt”.

Question: “VFNSTFEIWHD ({Tat PTD}-GGVFNSTFEIWHD) [Mutant 4, HIV TAT PTD-diglycine fusion peptide]” was tested. Which “Activity (autophagy inducing activity)” value did it give?
Answer: The value was “<<wt”.

Question: With “FNATFEIWHD (HIV TAT PTD and diglycine linker fused) [Mutant 21, HIV TAT PTD-diglycine fusion peptide]” as the sequence, how does the “Activity (autophagy inducing activity)” value read?
Answer: Its value is “>wt”.

Question: For “DHWIHFTANWV ([dD][dH][dW][dI][dH][dF][dT][dA][dN][dW][dV]; also: fused to TAT PTD via diglycine linker) [Mutant 30, D-retro-inverso counterpart of Mutant 17, with TAT PTD and diglycine linker]”, which “Activity (autophagy inducing activity)” value is on record?
Answer: The value was “>>wt”.

Question: With “VFNATFERWHD (HIV TAT PTD and diglycine linker fused) [Mutant 20, HIV TAT PTD-diglycine fusion peptide]” as the sequence, how does the “Activity (autophagy inducing activity)” value read?
Answer: The value was “~wt”.

Question: With “VFNATFEIFHD (HIV TAT PTD and diglycine linker fused) [Mutant 9, HIV TAT PTD-diglycine fusion peptide]” as the sequence, how does the “Activity (autophagy inducing activity)” value read?
Answer: The value was “~wt”.

Question: Which “Activity (autophagy inducing activity)” value does the source give for “VFNATFEMWHD (HIV TAT PTD-diglycine fusion) [Mutant 16, HIV TAT PTD-diglycine fusion peptide]” here?
Answer: Its value is “~wt”.

Question: With “VFNATFEFWHD (HIV TAT PTD and diglycine linker fused) [Mutant 18, HIV TAT PTD-diglycine fusion peptide]” as the sequence, how does the “Activity (autophagy inducing activity)” value read?
Answer: The value was “~wt”.

Question: How did the “Activity (autophagy inducing activity)” value turn out when “WNATFHIWHD (HIV TAT PTD and diglycine linker fused) [Mutant 29, HIV TAT PTD-diglycine fusion peptide]” was run?
Answer: Its value is “>>wt”.

Question: Which “Activity (autophagy inducing activity)” value does the source give for “VFNATFELWHD (HIV TAT PTD and diglycine linker fused) [Mutant 8, HIV TAT PTD-diglycine fusion peptide]” here?
Answer: Its value is “>wt”.

Question: “CFNATFEIWHD ({Tat PTD}-GGCFNATFEIWHD) [Mutant 1, HIV TAT PTD-diglycine fusion peptide]” was tested. Which “Activity (autophagy inducing activity)” value did it give?
Answer: The value was “~wt”.
